This data set in a line: Human HepG2 cell viability assay in 384 well format. It is filed as toxicity, cell-based. Details: dose 125 nL, time 70.5 hour; concentration not given beside the values. The note with it: HepG2 cells, read-out: Inhibition.
As for `CC1CCCCN1CCNC(=O)c1ccn(-c2cccc(F)c2)n1` (stereo unspecified), the cytotoxicity at 70.5 h was -0.176%.

As to `NS(=O)(=O)c1cccc(CNc2nccc(C(F)(F)F)n2)c1`, the cytotoxicity at 70.5 h is -5.9%.

For `CC(C)COCC(NC(=O)c1cnccn1)c1ccco1` (stereo unspecified), the cytotoxicity at 70.5 h is -10.5%.

For `O=C(NCCc1ccccn1)C1CC(=O)N(CC(F)(F)F)C1` (stereo unspecified), the cytotoxicity at 70.5 h was -2.42%.

Regarding `CCCOc1cc(C)ccc1NC(=O)N(C)Cc1cnn(C)c1`, the cytotoxicity at 70.5 h is -4.07%.

As for `Cc1ccc(C(=O)N2CCCS2(=O)=O)cc1Cl`, the cytotoxicity at 70.5 h was -19.9%.

With `CCOCCN1CCCC(c2cc(C(N)=O)[nH]n2)C1` (stereo unspecified), the cytotoxicity at 70.5 h is -13.1%.

As for `COc1ccccc1OCCN1CCCC(c2cc(C(N)=O)[nH]n2)C1` (stereo unspecified), the cytotoxicity at 70.5 h is -9.71%.

As for `Cc1cc(C2CCCN2Cc2cc(=O)n(C)c(=O)n2C)on1` (stereo unspecified), the cytotoxicity at 70.5 h was -12.3%.

Consider `Cn1nc2c(cc1=O)CN(Cc1nc(-c3cccs3)no1)CC2`, for which the cytotoxicity at 70.5 h was -14.3%.

With `Cc1cc(CN(C)C(=O)c2ccc(C(F)(F)F)nc2)no1`, the cytotoxicity at 70.5 h was -19.6%.

For the compound `Cn1c(C2CC2)nc2c1CCN(CCS(=O)(=O)c1ccccc1)C2`, the cytotoxicity at 70.5 h is -14.4%.

Regarding `COCCc1noc(CN2CCCC2Cn2cc(C)cn2)n1` (stereo unspecified), the cytotoxicity at 70.5 h is 18.1%.

As for `CCN1CCC(NC(=O)CN2CCCCC2Cn2cc(C)cn2)CC1` (stereo unspecified), the cytotoxicity at 70.5 h was 53.1%.

In the case of `CCOCCN1CCn2c(C)nnc2C1`, the cytotoxicity at 70.5 h amounted to 16.1%.

Regarding `CCN(Cc1nc2c(cnn2C)c(=O)[nH]1)c1cccc(F)c1`, the cytotoxicity at 70.5 h is -5.89%.

In the case of `Cc1cc(CN2CCN(c3nn4cc(C)nc4s3)CC2)on1`, the cytotoxicity at 70.5 h was -7.1%.

For `COc1ccc(COCC(O)CNC(=O)c2cc(C)cc(C)c2)cc1` (stereo unspecified), the cytotoxicity at 70.5 h was -11.8%.

`O=C(Nc1ccccc1F)N1CCN(Cc2noc(C3CC3)n2)CC1`: the cytotoxicity at 70.5 h is -10.2%.

With `Cc1nc(C)n(CC2CCCN(c3ncnc4[nH]ccc34)C2)n1` (stereo unspecified), the cytotoxicity at 70.5 h came out at 3.27%.

For the compound `Cc1cnn(CC2CCCCN2C(=O)c2cc(C(N)=O)cs2)c1` (stereo unspecified), the cytotoxicity at 70.5 h stood at 28.2%.

On to `Cc1nn(C)c(C)c1C1CCCN1C(=O)c1cc[nH]n1` (stereo unspecified), for which the cytotoxicity at 70.5 h is -3.7%.

As for `c1cnnc(N2CCCC2CNc2ncnc3c2CCC3)c1` (stereo unspecified), the cytotoxicity at 70.5 h was -2.98%.

Turning to `COc1ccccc1C(=O)NC(C)CC(=O)O` (stereo unspecified), the cytotoxicity at 70.5 h is -7.64%.

As for `Cc1cnn(CCNCc2cccnc2)c1`, the cytotoxicity at 70.5 h is -1.13%.

Turning to `CC(C)n1ccnc1CN1CCCN(C(=O)COC2CCCC2)CC1`, the cytotoxicity at 70.5 h was -3.66%.

As for `CC(C)(C)n1ncc2c1CCCC2NCc1cccc2c1OCO2` (stereo unspecified), the cytotoxicity at 70.5 h was -1.84%.

`Cc1nc(C2CCCN(C(=O)c3cccc(S(C)(=O)=O)c3)C2)no1` (stereo unspecified): the cytotoxicity at 70.5 h was -9.98%.

As for `CCn1ncc2c1CCCC2NCC1=Cc2ccccc2OC1` (stereo unspecified), the cytotoxicity at 70.5 h is -12.8%.

`Cc1cnn(CC(C)NCc2ccc(-n3cccn3)cc2)c1` (stereo unspecified): the cytotoxicity at 70.5 h worked out at 30.2%.

For `COc1ncccc1C(=O)N1CCN(C(=O)Cc2ccccn2)CC1`, the cytotoxicity at 70.5 h came to 6.6%.

On to `Cc1ccc(CC(=O)NCCCNS(C)(=O)=O)cc1`, for which the cytotoxicity at 70.5 h is 1.07%.

Regarding `Cc1nc(CN2CCN(C(=O)c3ccn(C)c(=O)c3)CC2)cs1`, the cytotoxicity at 70.5 h is 7.44%.

For `CC(C)(C)NC(=O)C1CSCN1S(=O)(=O)c1ccc(F)cc1` (stereo unspecified), the cytotoxicity at 70.5 h is -1.49%.

For `Cn1ccc(C(=O)N2CCN(CCc3ccccc3)CC2)cc1=O`, the cytotoxicity at 70.5 h is -1.11%.

`O=C(c1ccc(O)c(Cl)c1)N1CCC(c2n[nH]c(C3CC3)n2)CC1`: the cytotoxicity at 70.5 h worked out at 36.5%.

For the compound `CC(NC(=O)NCCCNS(C)(=O)=O)c1ccncc1` (stereo unspecified), the cytotoxicity at 70.5 h was 1.41%.

`CCn1cc(NC(=O)C2CCN(Cc3noc(C(C)C)n3)CC2)cn1`: the cytotoxicity at 70.5 h turned out to be 0.996%.

As to `COCCCNC(=O)NCc1ccc(C)cc1`, the cytotoxicity at 70.5 h is 8.59%.

Consider `CCc1nc(CC(=O)N2CCN(c3cnccn3)CC2)cs1`, for which the cytotoxicity at 70.5 h is -0.0277%.

As for `CCCc1nc(CN2CCN(Cc3noc(CCC)n3)CC2)no1`, the cytotoxicity at 70.5 h amounted to 11.4%.

Source of the values: ChEMBL document CHEMBL3507680, “University of Dundee, Gates Library screen for HepG2 cell viability”.
